Reference: patent US20230293487A1, “ANTI-INFLAMMATORY COMPOSITION COMPRISING BENZOFURAN-BASED N-ACYLHYDRAZONE DERIVATIVES” (KOREA RESEARCH INSTITUTE OF BIOSCIENCE AND BIOTECHNOLOGY, priority 2020, published 2023)

What was measured:
NF-κB [1] = assay: NF-κB luciferase reporter assay, TNF-α induced (Test Example 1); format: cell-based; conditions: Homo sapiens; HEK293, NF-κB luciferase vector, 10 ng/ml TNF-α, 1 uM compound; FIG. 1; read-out: NF-κB activity inhibited (reporter activity)
Description: The cultured human-derived HEK293 cell line was transfected with the NF-κB luciferase (reporter) vector, and treated with 10 ng/ml of TNF-α to induce activation of the NF-κB signaling pathway. In addition, during the above process, 1 uM of each of 9 kinds of compounds represented by [Chemical Formula 1] was treated to measure the inhibitory effect of the NF-κB-mediated inflammatory response regulatory pathway. Specifically, the relative expression level of NF-κB was confirmed.

NF-κB [2] = assay: NF-κB luciferase assay, luminometer (Test Example 3); format: cell-based, human; conditions: HEK293, 1 uM compound, 10 ng/ml TNF-α; FIG. 3
Description: HEK293 cell line, a human-derived embryonic kidney cell line, was cultured, transfected with NF-κB luciferase vector, treated with 1 uM of the compound, and then treated with 10 ng/ml of TNF-α to induce the NF-κB pathway. Luciferase assay method was performed to quantitatively measure the effect on NF-κB gene expression using a luminometer.

[3] = system: mice (oxazolone-induced skin inflammation); assay: Oxazolone-induced skin inflammation in mouse ears (Test Example 4): naked eye, H&E staining, immune cell count; format: in vivo; conditions: compound 20 μl at 500 nM, 5 applications; for number of inflammatory immune cells in skin: counted from H&E pictures, FIG. 6; for skin condition of ears confirmed with naked eye / thickness of the entire skin and epithelium (H&E staining): oxazolone on mouse ears; for skin condition of ears confirmed with naked eye: FIG. 4; for thickness of the entire skin and epithelium (H&E staining): FIG. 5
Description: 3% Oxazolone (150 μl) was applied to the abdominal skin of 6-week-old mice to induce an immune response, and 0.5% diluted oxazolone (20 μl) was applied to the ears of mice a total of 5 times at intervals of one day to induce an inflammatory response. After 30 minutes of oxazolone application, Example 4 (CAP-1042) or Example 12 (CAP-1047) was applied a total of 5 times in an amount of 20 μl each at a concentration of 500 nM each.
The number of mice in each experimental group was maintained at 10 or more, and the experiment was repeated twice in total.
Specifically, after H&E staining (FIG. 5), photographs of at least 10 different parts of each sample were taken evenly under a microscope. Then, the number of inflammatory immune cells stained in dark red was directly counted from the pictures taken, and the average value was calculated.

[4] = system: mice (LPS-induced sepsis); assay: LPS-induced sepsis (cytokine storm-like) model (Test Example 7); format: in vivo; conditions: LPS intraperitoneal, drug intravenous; FIG. 11B
Description: Since there were no disease model animals leading to death from a cytokine storm caused by coronaviruses, particularly Sars-Cov2, the present inventors used an acute sepsis model in which an acute inflammatory response is induced to cause the cytokine storm problem and confirmed inhibition of the cytokine storm, the possibility of treating severe acute respiratory syndrome coronavirus 2 infection disease and the possibility of treating sepsis.
An experiment was performed by treating LPS on an animal model (cytokine storm-like model) of sepsis (death). Mice were intraperitoneally administered with LPS for induction of sepsis and injected intravenously with the drug (Example 4), and then blood was collected at 3, 6, and 12 hours. The survival rate was confirmed for 48 hours to observe mortality due to sepsis.

P-p65 protein = assay: Western blotting of NF-κB canonical pathway, induced with TNF-α (Test Example 5); format: cell-based; conditions: TNFα induction, own compound used = Example 4 (1042), b448, FIG. 8
Source text: (§1) The NF-κB signaling pathway is largely divided into canonical and non-canonical pathways. In the canonical pathway, when an inflammatory response is induced by treatment with TNF-α, the amount of P-p65 protein, which is a phosphorylated product of p65 protein, increases and migrates into the nucleus, inducing an inflammatory response. In the non-canonical pathway, when an inflammatory response is induced with a LIGHT compound that activates the non-canonical NF-κB pathway, the p100 protein is converted into p52 protein through processing and migrates into the nucleus to induce an inflammatory response. […] Specifically, in order to confirm whether the activation of NF-κB signaling pathways (canonical and non-canonical pathways) is regulated, the regulation of phosphorylated p65 and p100 proteins, which are major signal regulating molecules, was confirmed using Western blotting. In the present experiment, the compound of Example 4 (1042) was used as the compound according to the present disclosure.

p100 protein = assay: Western blotting of NF-κB non-canonical pathway, induced with LIGHT (Test Example 5); format: cell-based; conditions: LIGHT induction, own compound used = Example 4 (1042), b448, FIG. 8
Source text: as §1

| Compound | inhibition at 1 µM (NF-κB [1]) | expression amount of the NF-κB gene (luciferase) (NF-κB [2]) | other results |
| --- | --- | --- | --- |
| Cc1ccc2oc(C(=O)N/N=C/c3c(Cl)[nH]c4ccccc34)cc2c1 [Example 1, (E)-N′-[(2-chloro-1H-indol-3-yl)methylene]-5-methylbenzofuran-2-carbohydrazide] | ≥ 50% | – | – |
| CCOCCn1c(Cl)c(/C=N/NC(=O)c2cc3cc(C)ccc3o2)c2ccccc21 [Example 4, (E)-N′-[(2-chloro-1-(2-ethoxyethyl)-1H-indol-3-yl]methylene}-5-methylbenzofuran-2-carbohydrazide] | ≥ 50% | significantly decreased | number of inflammatory immune cells in skin [3]: reduced the number of immune cells induced by the inflammatory reaction to the extent very similar to that of the normal case treated with ethanol; skin condition of ears confirmed with naked eye [3]: skin conditions very similar to those of normal animals treated with ethanol; thickness of the entire skin and epithelium (H&E staining) [3]: reduced to the extent very similar to that of the normal skin treated with ethanol; mortality due to sepsis (survival rate after 48 hours) [4]: significantly reduced mortality due to sepsis |
| CCOCCn1c(Cl)c(/C=N/NC(=O)c2cc3cc(C)ccc3o2)c2cc(OC)ccc21 [Example 8, (E)-N′-[(2-chloro-1-(2-ethoxyethyl)-5-methoxy-1H-indol-3-yl]methylene}-5-methylbenzofuran-2-carbohydrazide] | ≥ 50% | – | – |
| CCOCCn1c(Cl)c(/C=N/NC(=O)c2cc3cc(C)ccc3o2)c2ccc(OC)cc21 [Example 9, (E)-N′-[(2-chloro-1-(2-ethoxyethyl)-6-methoxy-1H-indol-3-yl]methylene}-5-methylbenzofuran-2-carbohydrazide] | ≥ 50% | – | – |
| CCOCCn1c(Cl)c(/C=N/NC(=O)c2cc3cc(C)ccc3o2)c2cc(F)ccc21 [Example 10, (E)-N′-[(2-chloro-1-(2-ethoxyethyl)-5-fluoro-1H-indol-3-yl]methylene}-5-methylbenzofuran-2-carbohydrazide] | ≥ 50% | significantly decreased | – |
| CCOCCn1c(Cl)c(/C=N/NC(=O)c2cc3cc(C)ccc3o2)c2cc(Cl)ccc21 [Example 11, (E)-N′-[(2,5-dichloro-1-(2-ethoxyethyl)-1H-indol-3-yl]methylene}-5-methylbenzofuran-2-carbohydrazide] | ≥ 50% | significantly decreased | – |
| CCOCCn1c(Cl)c(/C=N/NC(=O)c2cc3cc(C)ccc3o2)c2cc(OC(F)(F)F)ccc21 [Example 12, (E)-N′-[(2-chloro-1-(2-ethoxyethyl)-5-(trifluoromethoxy)-1H-indol-3-yl]methylene}-5-methylbenzofuran-2-carbohydrazide] | ≥ 50% | significantly decreased | skin condition of ears confirmed with naked eye [3]: skin conditions very similar to those of normal animals treated with ethanol; thickness of the entire skin and epithelium (H&E staining) [3]: reduced to the extent very similar to that of the normal skin treated with ethanol |
| CCOCCn1c(Cl)c(/C=N/NC(=O)c2cc3cc(C)ccc3o2)c2cc(C)ccc21 [Example 13, (E)-N′-[(2-chloro-1-(2-ethoxyethyl)-5-methyl-1H-indol-3-yl]methylene}-5-methylbenzofuran-2-carbohydrazide] | ≥ 50% | significantly decreased | – |
| CCOC(=O)Cn1c(C)c(/C=N/NC(=O)c2cc3cc(C)ccc3o2)c2ccccc21 [Example 21, ethyl (E)-2-(2-methyl-3-((2-(5-methylbenzofuran-2-carbonyl)hydrazinylidene)methyl)-1H-indol-1-yl)acetate] | – | – | melting point: 186 °C |
| CCOC(=O)Cn1c(C)c(/C=N/NC(=O)c2cc3cc(Cl)ccc3o2)c2ccccc21 [Example 22] | – | – | melting point: 214 °C |
| COC(=O)Cn1c(Cl)c(/C=N/NC(=O)c2cc3cc(C)ccc3o2)c2ccccc21 [Example 23, methyl (E)-2-(2-chloro-3-((2-(5-methylbenzofuran-2-carbonyl)hydrazinylidene)methyl)-1H-indol-1-yl)acetate] | ≥ 50% | – | melting point: 212 °C |
| NC(=O)Nc1sc(-c2ccc(F)cc2)cc1C(N)=O [TPCA1] | – | – | inhibition of canonical NF-κB pathway (P-p65) (P-p65 protein): acts on the canonical pathway; inhibition of non-canonical NF-κB pathway (p100 to p52 processing) (p100 protein): not on the non-canonical pathway |
| (E)-N′-[(2-chloro-1-(2-methoxyethyl)-1H-indol-3-yl]methylene}-5-methylbenzofuran-2-carbohydrazide [Example 7] | – | – | number of inflammatory immune cells in skin [3]: reduced the number of immune cells induced by the inflammatory reaction to the extent very similar to that of the normal case treated with ethanol |
